Converted amounts (≈) assume the structure as drawn. Where two headings read alike, the source gives them in different places.
Columns and labels:
[1] = Human hepatic intrinsic clearance (CLint) assay in human hepatocytes; format: in vitro ADME; details: human, human hepatocytes in suspension, pH 7.4, human hepatocytes
Excerpt: The hepatic metabolic component of human clearance is predicted from scaled in vitro intrinsic clearance (CLint) data from human hepatocytes (see Chem Biol Interact. 2007, 168(1), 2-15) and from the extent of human blood binding, primarily due to plasma protein binding. The well stirred model of the liver is a model for predicting blood clearance in the liver from intrinsic clearance (CLint) determined using hepatocytes. (see Drug Metab Dispos. 2005, 33(9), 1304-11) The model is usually written as:
Human Hepatic Intrinsic Clearance (CLint) Assay
For the majority of drugs, a large component of their plasma clearance is contributed by hepatic metabolism. Intrinsic clearance (CLint) is a measure of the potential of a compound to undergo metabolism and can be related to hepatic clearance in vivo from a consideration of plasma protein binding and liver blood flow. Therefore, CLint may be used as an index of the relative metabolic stability of compounds within a project and compared with other external probe substrates. Furthermore, the measurement of CLint in vitro within a research project, where hepatic metabolic clearance is known to be an issue, may be a useful means of understanding the different pharmacokinetic behaviour of the compounds in vivo.
This following description outlines a method for estimating intrinsic clearance (CLint) from human hepatocyte incubations using suspension buffer containing no HSA (human serum albumin) and maintaining physiological conditions of pH 7.4.
Hepatocytes were prepared by a two-step in situ collagenase perfusion method of a portion of the human liver, suspended in protein free buffer (see below) and stored on ice, prior to incubation.
This method is based on the procedure of Seglen (Preparation of rat liver cells. I. Effect of Ca^2+ on enzymatic dispersion of isolated, perfused liver. Exptl. Cell Res., 1972, 74, p450 and preparation of isolated rat liver cells. Methods Cell Biol., 1976, 13, p 29) which itself was developed from the one step procedure of Berry and Friend (High-yield preparation of isolated rat liver parenchymal cells. J. Cell Biol., 1969, 43, p 506).
Suspension medium: 2.34 g Na HEPES, 2.0 g HSA fraction V, 0.4 g D-fructose, DMEM (1 L powder equivalent, Sigma; w/1 g.1^−1 glucose, w/Na pyruvate, w/o NaHCO3, w/o phenol red), made up to 1 L with Milli-Q water, pH to 7.4 with 1 M HCl. (Protein free suspension buffer is made omitting the 2.0 g HSA fraction V)
The capsule of a liver which has been perfused with digestion medium was cut open and the cells gently teased out into the medium. The cells were then passed through a mesh (approximately 250 μM) into a beaker containing 50 ml suspension medium. The mesh was rinsed through into the beaker with further suspension buffer to a final volume of 100 ml. The suspension was divided between two plastic 50 mL centrifuge tubes (pre-cooled on ice) and centrifuged at 50×g for 2 min at 4° C. The supernatants were decanted and the pellets re-suspended in protein free suspension buffer to the original volume. The centrifugation step was repeated and each pellet re-suspended in approximately 10 ml protein free suspension buffer. The suspensions were combined and the volume made up to 50 mL with protein free suspension buffer.
An aliquot of cell suspension (0.2 mL) was diluted with 0.2 ml protein free suspension buffer. To the diluted cells was added 0.2 mL trypan blue solution (0.4% w/v) followed by gentle mixing. After 1 min, a pasteur pipette was used to withdraw a sample and fill an Improved Neubauer Counting Chamber by capillary action. The cells were then counted (central square only) using an inverted microscope, viable cells being able to exclude the dye and non-viable cells being stained. The percentage of viable cells in the preparation was calculated thus: […]

[2] = Measurement of solubility (S); format: physicochemical; details: thermodynamic from solid; saturated solution, shaken overnight at 20° C.
Excerpt: Measurement of Solubility (S)
The solubility of a compound is an important property affecting the preparation of solutions of the compound for screening, as well as influencing absorption of solid doses of the compound in animal and human studies. The method described below for measuring the solubility involves the generation of a saturated solution of the compound, followed by assaying the solution using HPLC with UV quantification and MS identification.
Saturated solutions for determining the solubility were prepared by placing about 0.3-3.0 ml of solvent in glass screw-top sample tubes along with some of the compound. The tubes are then shaken overnight in the constant temperature room (20° C.). After shaking, undissolved material should be present in the solution, and more was added and shaking continued if this was not the case. The samples were then transferred to a centrifuge tube and centrifuged using a Heraeus Biofuge Fresco centrifuge at 13000 rpm for about 30 minutes. The supernatant was then removed, placed in a new centrifuge tube and centrifuged again for about 30 minutes at 13000 rpm. The undissolved material formed a pellet at the bottom of the tube and the liquid above the pellet was removed for assaying. The solution was then analysed using HPLC with UV quantification. If the response for the compound is very strong then the solution should be accurately diluted such that the response lies within a more suitable range of UV response. A standard was also prepared by accurately weighing a sample of the compound and dissolving it in a suitable volume of a solvent that dissolves it completely (typically, DMSO, ethanol or methanol). This sample was then analysed by HPLC/UV. Again the response of this standard should lie within a suitable range of UV response otherwise a more appropriate concentration should be prepared and analysed by HPLC/UV.
The solubility (S) was calculated from the observed peak areas in the HPLC/UV chromatograms along with corrections for any dilutions of the sample and differences in injection volumes. The following equation was used: […]

[3] = protein free suspension buffer, pH 7.4, 37° C., read-out: Human hepatocyte Intrinsic-clearance assay CLint
[4] = unit inferred, read-out: hepatic intrinsic clearance (Clint)

SMILES | hepatocyte CLint at 1 µM [1, 3] [µL/min/1e6 cells] | hepatocyte CLint at 1 µM [1, 4] [µL/min/1e6 cells] | solubility [2] [µg/mL]
C[C@@H](Nc1cc(NS(=O)(=O)N2CCC2)nc(SCc2cccc(F)c2F)n1)[C@@H](O)CO [Example 1, N-(2-[(2,3-difluorobenzyl)thio]-6-{[(1R,2R)-2,3-dihydroxy-1-methylpropyl]amino}pyrimidin-4-yl)azetidine-1-sulfonamide] | 2.1 | 2.1 | 317 (≈ 667 µM)
CS(=O)(=O)Nc1cc(NC(CO)CO)nc(SCc2ccccc2)n1 [Example 21] | 2.3 | 2.3 | 
Cc1cccc(CSc2nc(N[C@H](C)CO)cc(NS(C)(=O)=O)n2)c1F [Example 39] | 5.1 |  | 342 (≈ 854 µM)
Cc1cccc(CSc2nc(N[C@H](C)CO)cc(NS(=O)(=O)N3CCC3)n2)c1F [Example 40] | 9 |  | 
Cc1ccc(CSc2nc(N[C@H](C)CO)cc(NS(=O)(=O)N3CCC3)n2)c(F)c1C [Example 41] | 12 |  | 372 (≈ 817 µM)

Source: US20100016275A1, “NOVEL COMPOUND 395” (priority 2008, published 2010)
